Laboratory results as given in US20240025883A1, “PYRIMIDIN-2-YL SULFONAMIDE DERIVATIVES” (Hoffmann-La Roche Inc., priority 2021, published 2024).

molecular target: human GPR17 short isoform (Homo sapiens (Human), UniProt Q13304); assay: GPR17 cAMP assay (hGPR17 cAMP, antagonist mode against EC80 of MDL29,951); format: cell-based; settings: CHO-K1 cells stably expressing human GPR17 short isoform; EC80 of agonist MDL29,951; forskolin 15 μM
Summary of the method: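 CHO-K1 cells stably expressing untagged human GPR17 short isoform, 10,000/well in HBSS/10 mM HEPES/0.1% BSA pH 7.4. Compounds added with EC80 MDL29,951 and 0.5 mM IBMX, then 15 μM forskolin 5 min later, 30 min at room temperature; cAMP by TR-FRET, normalized to reference antagonist, sigmoidal fit.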

Chain of human GPR17 short isoform (Q13304 29-367): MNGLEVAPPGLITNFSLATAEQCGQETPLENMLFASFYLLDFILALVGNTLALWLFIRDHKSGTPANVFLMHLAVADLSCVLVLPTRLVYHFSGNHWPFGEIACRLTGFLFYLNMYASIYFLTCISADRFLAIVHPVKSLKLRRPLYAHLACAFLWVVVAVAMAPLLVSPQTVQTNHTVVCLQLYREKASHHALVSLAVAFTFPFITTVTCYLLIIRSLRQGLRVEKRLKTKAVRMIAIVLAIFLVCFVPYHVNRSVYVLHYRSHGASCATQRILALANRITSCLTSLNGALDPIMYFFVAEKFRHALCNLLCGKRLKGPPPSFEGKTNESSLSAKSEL

SMILES | IC50 [nM]
COc1nc(NS(=O)(=O)c2c[nH]c3nc(Cl)ccc23)ncc1CCC(F)F [Example 204, 6-chloro-N-[5-(3,3-difluoropropyl)-4-methoxy-pyrimidin-2-yl]-1H-pyrrolo[2,3-b]pyridine-3-sulfonamide] | 29
COc1nc(NS(=O)(=O)c2c[nH]c3nc(Cl)ccc23)nc(OC)c1OC(F)F [Example 205, 6-chloro-N-[5-(difluoromethoxy)-4,6-dimethoxy-pyrimidin-2-yl]-1H-pyrrolo[2,3-b]pyridine-3-sulfonamide] | 49
COc1nc(NS(=O)(=O)c2c[nH]c3nc(Cl)ccc23)nc(OC)c1OCC(F)F [Example 206, 6-chloro-N-[5-(2,2-difluoroethoxy)-4,6-dimethoxy-pyrimidin-2-yl]-1H-pyrrolo[2,3-b]pyridine-3-sulfonamide] | 57
COc1nc(NS(=O)(=O)c2c[nH]c3c(F)c(Cl)ccc23)ncc1CCC(F)F [Example 207, 6-chloro-N-[5-(3,3-difluoropropyl)-4-methoxy-pyrimidin-2-yl]-7-fluoro-1H-indole-3-sulfonamide] | 14
COc1nc(NS(=O)(=O)c2c[nH]c3c(F)c(Cl)ccc23)nc(OC)c1OCC(F)F [Example 208, 6-chloro-N-[5-(2,2-difluoroethoxy)-4,6-dimethoxy-pyrimidin-2-yl]-7-fluoro-1H-indole-3-sulfonamide] | 25
COc1nc(NS(=O)(=O)c2c[nH]c3c(C(F)F)c(Cl)ccc23)ncc1CCC(F)F [Example 209, 6-chloro-7-(difluoromethyl)-N-[5-(3,3-difluoropropyl)-4-methoxy-pyrimidin-2-yl]-1H-indole-3-sulfonamide] | 68
COc1nc(NS(=O)(=O)c2c[nH]c3c(Cl)c(Cl)ccc23)ncc1CC(F)F [Example 210, 6,7-dichloro-N-[5-(2,2-difluoroethyl)-4-methoxy-pyrimidin-2-yl]-1H-indole-3-sulfonamide] | 18
COc1nc(NS(=O)(=O)c2c[nH]c3c(Cl)c(Cl)ccc23)ncc1CCC(F)F [Example 211, 6,7-dichloro-N-[5-(3,3-difluoropropyl)-4-methoxy-pyrimidin-2-yl]-1H-indole-3-sulfonamide] | 30
COc1nc(NS(=O)(=O)c2c[nH]c3c(OC4CC4)c(Cl)ccc23)ncc1CCC(F)F [Example 212, 6-chloro-7-(cyclopropoxy)-N-[5-(3,3-difluoropropyl)-4-methoxy-pyrimidin-2-yl]-1H-indole-3-sulfonamide] | 45
COc1nc(NS(=O)(=O)c2c[nH]c3c(F)c(Br)ccc23)ncc1OCCF [Example 213, 6-bromo-7-fluoro-N-[5-(2-fluoroethoxy)-4-methoxy-pyrimidin-2-yl]-1h-indole-3-sulfonamide] | 34
COc1nc(NS(=O)(=O)c2c[nH]c3c(C(F)F)c(Cl)ccc23)ncc1CC(F)F [Example 214, 6-chloro-N-[5-(2,2-difluoroethyl)-4-methoxy-pyrimidin-2-yl]-7-(difluoromethyl)-1H-indole-3-sulfonamide] | 38
COc1nc(NS(=O)(=O)c2c[nH]c3c(F)c(Cl)ccc23)ncc1OC(F)(F)CF [Example 215, 6-chloro-7-fluoro-N-[4-methoxy-5-(1,1,2-trifluoroethoxy)pyrimidin-2-yl]-1H-indole-3-sulfonamide] | 28
COc1nc(NS(=O)(=O)c2c[nH]c3c(F)c(Cl)ccc23)ncc1CCC#N [Example 216, 6-chloro-N-[5-(2-cyanoethyl)-4-methoxy-pyrimidin-2-yl]-7-fluoro-1H-indole-3-sulfonamide] | 43
COc1nc(NS(=O)(=O)c2c[nH]c3c(F)c(Cl)ccc23)nc(OC)c1CC(F)F [Example 217, 6-chloro-N-[5-(2,2-difluoroethyl)-4,6-dimethoxy-pyrimidin-2-yl]-7-fluoro-1H-indole-3-sulfonamide] | 17
COc1nc(NS(=O)(=O)c2c[nH]c3c(F)c(Cl)ccc23)nc(OC)c1CCC#N [Example 218, 6-chloro-N-[5-(2-cyanoethyl)-4,6-dimethoxy-pyrimidin-2-yl]-7-fluoro-1H-indole-3-sulfonamide] | 14
COc1nc(NS(=O)(=O)c2c[nH]c3c(F)c(Cl)ccc23)nc(OC)c1OCC#N [Example 219, 6-chloro-N-[5-(cyanomethoxy)-4,6-dimethoxy-pyrimidin-2-yl]-7-fluoro-1H-indole-3-sulfonamide] | 18
COc1nc(NS(=O)(=O)c2c[nH]c3nc(Cl)ccc23)ncc1OC(F)(F)CF [Example 220, 6-chloro-N-[4-methoxy-5-(1,1,2-trifluoroethoxy)pyrimidin-2-yl]-1H-pyrrolo[2,3-b]pyridine-3-sulfonamide] | 27
COc1nc(NS(=O)(=O)c2c[nH]c3nc(Cl)ccc23)nc(OC)c1OCCF [Example 221, 6-chloro-N-[5-(2-fluoroethoxy)-4,6-dimethoxy-pyrimidin-2-yl]-1H-pyrrolo[2,3-b]pyridine-3-sulfonamide] | 65
COc1nc(NS(=O)(=O)c2c[nH]c3c2ccc2cccnc23)ncc1CC(F)F [Example 222, N-[5-(2,2-difluoroethyl)-4-methoxy-pyrimidin-2-yl]-1H-pyrrolo[3,2-h]quinoline-3-sulfonamide] | 291
COc1nc(NS(=O)(=O)c2c[nH]c3c(C#N)c(Cl)ccc23)ncc1CC(F)F [Example 223, 6-chloro-7-cyano-N-[5-(2,2-difluoroethyl)-4-methoxy-pyrimidin-2-yl]-1H-indole-3-sulfonamide] | 40
COc1nc(NS(=O)(=O)c2c[nH]c3c(C#N)c(Cl)ccc23)nc(OC)c1OC(F)F [Example 224, 6-chloro-7-cyano-N-[5-(difluoromethoxy)-4,6-dimethoxy-pyrimidin-2-yl]-1H-indole-3-sulfonamide] | 25
COc1nc(NS(=O)(=O)c2c[nH]c3c4c(ccc23)COC4)nc(OC)c1CC(F)F [Example 229, N-[5-(2,2-difluoroethyl)-4,6-dimethoxy-pyrimidin-2-yl]-6,8-dihydro-1H-fur[3,4-g]indole-3-sulfonamide] | 27
COc1nc(NS(=O)(=O)c2c[nH]c3nc(Br)ccc23)ncc1OCCF [Example 230, 6-bromo-N-[5-(2-fluoroethoxy)-4-methoxy-pyrimidin-2-yl]-1H-pyrrolo[2,3-b]pyridine-3-sulfonamide] | 41
COc1nc(NS(=O)(=O)c2c[nH]c3nc(Br)ccc23)ncc1OC(F)(F)CF [Example 231, 6-bromo-N-[4-methoxy-5-(1,1,2-trifluoroethoxy)pyrimidin-2-yl]-1H-pyrrolo[2,3-b]pyridine-3-sulfonamide] | 21
COc1nc(NS(=O)(=O)c2c[nH]c3c(CC#N)c(Cl)ccc23)ncc1CC(F)F [Example 232, 6-chloro-7-(cyanomethyl)-N-[5-(2,2-difluoroethyl)-4-methoxy-pyrimidin-2-yl]-1H-indole-3-sulfonamide] | 35
COc1nc(NS(=O)(=O)c2c[nH]c3c(C4CC4)c(Cl)ccc23)ncc1CC(F)F [Example 233, 6-chloro-7-cyclopropyl-N-[5-(2,2-difluoroethyl)-4-methoxy-pyrimidin-2-yl]-1H-indole-3-sulfonamide] | 202
COc1nc(NS(=O)(=O)c2c[nH]c3c(SC)c(Cl)ccc23)ncc1CC(F)F [Example 234, 6-chloro-N-[5-(2,2-difluoroethyl)-4-methoxy-pyrimidin-2-yl]-7-(methylthio)-1H-indole-3-sulfonamide] | 16
